# Target: T1, PLA2 (Homo sapiens, UniProt P14555)
# T1 construct: The enzyme is isolated from human platelets; from tissue; host or cells: human platelets
# T1 sequence (P14555 21-144): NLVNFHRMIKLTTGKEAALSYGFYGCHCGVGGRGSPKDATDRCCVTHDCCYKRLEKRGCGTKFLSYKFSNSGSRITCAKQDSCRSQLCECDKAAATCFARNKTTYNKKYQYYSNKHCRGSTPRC
# Experiment: PLA2 Inhibition Assay (14C-oleate labeled E. coli membrane substrate)
# Type: biochemical
# Settings: 100 μM; PLA2 from human platelets; pH 7, 37° C.
# Protocol: The method used is similar to that reported by Franson, et al. [Jesse, R. L. and Franson R. C., Biochim. Biophys. Acta 575: 467-470 (1979); Franson, R. C., Patriarca, P., and Elsback, P., J. Lipid Res. 15: 380-388 (1974)]. The enzyme is isolated from human platelets. The substrate used consists of ^14 C-oleate labeled Escherichia coli membranes. E. coli cells are grown in the presence of ^14 C-oleic acid and then autoclaved to prepare the membranes.
# Various concentrations of test compounds are preincubated with PLA2 (3.6 mg/mL in a buffer consisting of 25 mM HEPES (pH 7)), 150 mM NaCl, 5.0 mM CaCl2, and 10% DMSO (v/v, test compound solvent) at 37° C. for 7 minutes. The E. coli substrate is then added (0.1 mM phospholipid, 0,005 mCi ^14 C) and the reaction is then incubated at 37° C. for 30 minutes. The reaction is then terminated by the addition of 1.9 mL tetrahydrofuran (THF), and the entire solution is applied to a solid-phase extraction column (aminopropyl resin, Analytichem). The column is rinsed with an additional 1 mL of THF. The free fatty acid product of the reaction is then eluted from the column with 1 mL 2% acetic acid in THF and collected in a scintillation vial. The amount of free fatty acid product is determined by liquid scintillation counting. The amount of inhibition produced by the test compound is calculated by comparing the counts obtained in the presence of the compound to those obtained in its absence (solvent only). Background counts were determined by performing incubations in the absence of enzyme.
# Percent inhibition is determined by the equation: [formula]
row,Compound,inhibition at 100 µM [%]
1,"O=C(O)Cc1cccc(OCc2ccc(OC3CCCC3)c(OC3CCCC3)c2)c1-c1cccc(C(=O)O)c1 [Structure 30b, 2-[(3,4-biscyclopentyloxy)phenyl]methoxy-3'-carboxy-[1,1'-biphenyl]-6-acetic acid]",79
2,"CC1(C)CCC(C)(C)c2cc(COc3cccc(C(=O)O)c3-c3ccccc3)ccc21 [Structure 14n, 2-(5,6,7,8-tetrahydro-5,5,8,8-tetramethyl-2-naphthalenyl)methoxy-[1,1'-biphenyl]-6-carboxylic acid]",90
3,"CC1(C)CCC(C)(C)c2cc(COc3cccc(CC(=O)O)c3-c3cccc(C(=O)O)c3)ccc21 [Structure 30f, 3'-carboxy-2-(5,6,7,8-tetrahydro-5,5,8,8-tetramethyl-2-naphthalenyl)methoxy-[1,1'-biphenyl]-6-acetic acid]",80
4,"CCCCCOc1ccc(COc2cccc(CC(=O)O)c2-c2cccc(C(=O)O)c2)cc1OCCCCC [Structure 30a, 2-[(3,4-bispentyloxy)phenyl]methoxy-3'-carboxy-[1,1'-biphenyl]-6-acetic acid]",96
5,"CCCCCOc1ccc(COc2cccc(C(=O)O)c2-c2ccccc2)cc1O [Structure 14e, 2-[(3-hydroxy-4-pentyloxy)phenyl]methoxy-[1,1 '-biphenyl]-6-carboxylic acid]",34
6,"CC1(C)CCC(C)(C)c2cc(COc3cccc(C(=O)O)c3-c3cccc(CC(=O)O)c3)ccc21 [Structure 14q, 6-carboxy-2-[5,6,7,8-tetrahydro-5,5,8,8-tetramethyl-2-naphthalenyl]methoxy-[1,1'-biphenyl]-3'-acetic acid]",72
7,"CC1(C)CCC(C)(C)c2cc(COc3c(C(=O)O)cccc3-c3ccccc3)ccc21 [Structure 48, 2-[5,6,7,8-tetrahydro-5,5,8,8-tetramethyl-2-naphthalenyl]methoxy-[1,1'-biphenyl]-3-carboxylic acid]",88
8,"CCCCCCCCCCOc1ccc(COc2cccc(CC(=O)O)c2-c2cccc(C(=O)O)c2)cc1 [Structure 30c, 3'-carboxy-2-[4-decyloxyphenyl]methoxy-[1,1'-biphenyl]-6-acetic acid]",99
9,CCCCCOc1ccc(COc2cccc(/C=C/C(=O)O)c2-c2cccc(C(=O)O)c2)cc1OCCCCC [Structure 39c],59
10,"CC1(C)CCC(C)(C)c2cc3cc(-c4cccc(CC(=O)O)c4-c4cccc(C(=O)O)c4)ccc3cc21 [Structure 28c, 3'-carboxy-2-[(1,2,3,4-tetrahydro-1,1,4,4-tetramethyl)-6-anthracenyl]-[1,1'-biphenyl]-6-acetic acid]",93
